From US7785581B2, “Composition and method for reducing feces toxins and treating digestive disorders” (Qingdao East Sea Pharmaceuticals Ltd., priority 2006, dated 2010)

How the values were obtained:
Format in all cases: in vivo, human
IBS patients = test: Treatment of IBS with live Bifidobacterium tablets (Example 8)
patients with diarrhea [1] = test: Treatment of diarrhea associated with cold or raw food, or with common cold (Example 9); conditions: 14 to 21 days
patients with diarrhea [2] = test: Treatment of diarrhea associated with alcohol intake (Example 10); conditions: 14 to 21 days
[3] = 57 IBS patients, 14 to 21 days, cured plus effective
[4] = diarrhea after cold/raw food or common cold
[5] = diarrhea after drinking alcohol

## Bifidobacterium
IBS patients; 57 IBS patients, 14 to 21 days
  Cured %: 61%
  Cured Case No.: 35
  Effective %: 28%
  Effective Case No.: 16
  Improved %: 11%
  Improved Case No.: 6
  Ineffective %: 0%
  Ineffective Case No.: 0
IBS patients; [3]
  Effective Cases % (overall effective rate): 89%
  Effective Cases Case No.: 51
IBS patients; IBS patients
  other IBS symptoms, such as abdominal pain and discomfort: alleviated
IBS patients; most of the IBS patients
  symptoms of diarrhea or constipation: ameliorated
Patients with diarrhea [1]
  effectiveness in treating diarrhea associated with eating cold or raw foods, or with common cold: highly effective
Patients with diarrhea [1]; [4]
  Cured (cases): 23
  Effective (cases): 14
  Improved (cases): 5
  Ineffective (cases): 0
Patients with diarrhea [1]; diarrhea after cold/raw food or common cold, cured plus effective
  Efficacy: 88.10%
Patients with diarrhea [2]
  effectiveness in treating diarrhea associated with alcohol intake: highly effective
Patients with diarrhea [2]; [5]
  Cured (cases): 21
  Effective (cases): 13
  Improved (cases): 4
  Ineffective (cases): 0
Patients with diarrhea [2]; diarrhea after drinking alcohol, cured plus effective
  Efficacy: 89.5%
